Measurements reported in patent EP0528699B1, “Saishin N derivatives, process for their preparation and anti-ulcer agents containing them” (TOKYO TANABE COMPANY LIMITED, priority 1991, dated 1993).
Read-outs that look alike come from different tables or passages of the source.

System: Hydrochloric acid-Ethanol-Induced Ulcers
Experiment: Hydrochloric acid-Ethanol-Induced Ulcers
Format: in vivo, male Wister rats
Settings: Rattus norvegicus, intraduodenal, read-out: Inhibition ratio(%); for inhibition in vivo at 5 mg/kg: dose 5 mg/kg intraduodenally one hour before hydrochloric acid - 60% ethanol; for inhibition in vivo at 10 mg/kg: dose 10 mg/kg intraduodenally one hour before hydrochloric acid - 60% ethanol
Method: Experiments on Hydrochloric acid-Ethanol-Induced Ulcers, Aspirin-Induced Ulcers, Water-Immersion stress-Induced Ulcers, Shay's Ulcers and Serotonin-Induced Ulcers were carried out using male Wister rats weighing about 200g in groups of six. Experiments on Ischemia-Reperfusion -Induced Gastric Lesions were carried out using male SD rats weighing about 250g in groups of six. Other than for the tests on Ischemia-Reperfusion-Induced Gastric Lesions Models, the test compounds were prepared by mixing thoroughly with polyethyleneglycol and 0.5% sodium carboxymethyl cellulose solution and emulsifying vigorously. Activities against respective ulcer models were evaluated by an inhibiting ratio obtained by dividing the difference between the ulceration indexes of the non-administered group and the test compound group by the non-administered group.
To each rat which had been fasted for 24 hours was orally administered 0.5ml of a mixed solution of 150 mM hydrochloric acid - 60% ethanol per 100g of weight. Each rat was slaughtered after one hour, a length of ulcer formed at the fundus gland area of stomach was measured and ulceration index was calculated based on the length. The test compound was administered intraduodenally one hour or three hours before the administration of mixed solution of hydrochloric acid - 60% ethanol.

[1] = 3 h, Table 1, dose 20 mg/kg intraduodenally three hours before hydrochloric acid - 60% ethanol

| SMILES | inhibition in vivo at 20 mg/kg [1] [%] | also measured |
| --- | --- | --- |
| CC1=CC(OC(=O)c2cccc([N+](=O)[O-])c2)C(O)C(C)(C)CC1=O (stereo not drawn) [AU200, 5-hydroxy-4-(3-nitrobenzoyloxy)-2,6,6-trimethyl-2-cyclohepten-1-one] | 50 |  |
| CC(=O)OC1C(OC(=O)c2cccc(Cl)c2)CC(C)C(=O)CC1(C)C (stereo not drawn) [AU199, 2,4-cis-5-acetoxy-4-(3-chlorobenzoyloxy)-2,6,6-trimethylcycloheptan-1-one] | 29 |  |
| COC1C=C(C)C(=O)CC(C)(C)C1OC(=O)c1ccccc1C(=O)O (stereo not drawn) [AU218, 5-(2-carboxybenzoyloxy)-4-methoxy-2,6,6-trimethyl-2-cyclohepten-1-one] | 34 |  |
| CC1=CC(O)C(OC(=O)c2ccc(N)cc2)C(C)(C)CC1=O (stereo not drawn) [AU216, 5-(4-aminobenzoyloxy)-4-hydroxy-2,6,6-trimethyl-2-cyclohepten-1-one] | 23 |  |
| COC12CC(C)(C)C(O1)C(O)C=C2C (stereo not drawn) [AU152, 1-methoxy-2,6,6-trimethyl-8-oxabicyclo [3.2.1] oct-2-en-4-ol] |  | inhibition in vivo at 20 mg/kg (1 h, Table 2, dose 20 mg/kg intraduodenally one hour before hydrochloric acid - 60% ethanol): 87% |
| COC1C=C(C)C(=O)CC(C)(C)C1OC(=O)c1ccccc1 (stereo not drawn) [AU121, 5-benzoyloxy-4-methoxy-2,6,6-trimethyl-2-cyclohepten-1-one] | 50 |  |
| CC1CC(O)C2OC1(OC(=O)c1ccc([N+](=O)[O-])cc1)CC2(C)C (stereo not drawn) [AU250, 2,4-cis-1-(4-nitrobenzoyloxy):2,6,6-trimethyl-8-oxabicyclo [3.2.1] octan-4-ol] | 36 |  |
| COc1ccc(COC2CC(C)C(=O)CC(C)(C)C2OC(C)=O)cc1 (stereo not drawn) [AU185, 2,4-cis-5-acetoxy-4-(4-methoxybenzyloxy)-2,6,6-trimethylcycloheptan-1-one] | 34 |  |
| COC1C=C(C)C2(OC)CC(C)(C)C1O2 (stereo not drawn) [AU155, 1,4-dimethoxy-2,6,6-trimethyl-8-oxabicyclo [3. 2. 1] oct-2-ene] |  | inhibition in vivo at 5 mg/kg (1 h, Table 2): 93%; inhibition in vivo at 10 mg/kg (1 h, Table 2): 96% |
| COC1C(OC(=O)c2ccc(N)cc2)C=C(C)C(=O)CC1(C)C (stereo not drawn) [AU239, 4-(4-aminobenzoyloxy)-5-methoxy-2,6,6-trimethyl-2-cyclohepten-1-one] | 41 |  |
| COC12CC(C)(C)C(O1)C(=O)CC2C (stereo not drawn) [AU163, 1-methoxy-2,6,6-trimethyl-8-oxabicyclo [3.2.1] octan-4-one] | 32 |  |
| COC12CC(C)(C)C(O1)C(OC(C)=O)CC2C (stereo not drawn) [AU108A, 2,4-trans-1-methoxy-4-acetoxy-2,6,6-trimethyl-8-oxabicyclo [3.2.1] octane] | 55 | inhibition in vivo at 10 mg/kg (1 h, Table 2): 75% |
| COC12CC(C)(C)C(O1)C(OC(C)=O)C=C2C (stereo not drawn) [AU158, 4-acetoxy-1-methoxy-2,6,6-trimethyl-8-oxabicyclo [3.2.1] oct-2-ene] |  | inhibition in vivo at 5 mg/kg (1 h, Table 2): 33% |
| COC12CC(C)(C)C(O1)C(OCc1ccccc1)C=C2C (stereo not drawn) [AU157, 1-methoxy-4-benzyloxy-2,6,6-trimethyl-8-oxabicyclo [3.2.1] oct-2-ene] |  | inhibition in vivo at 5 mg/kg (1 h, Table 2): 64% |
| CC(=O)OC1C=C(C)C(=O)CC(C)(C)C1OC(C)=O (stereo not drawn) [AU102, 4,5-diacetoxy-2,6,6-trimethyl-2-cyclohepten-1-one] | 49 | inhibition in vivo at 10 mg/kg (1 h, Table 2): 75% |
| CC1=CC(O)C(OC(=O)c2ccccc2Cl)C(C)(C)CC1=O (stereo not drawn) [AU127, 5-(2-chlorobenzoyloxy)-4-hydroxy-2,6,6-trimethyl-2-cyclohepten-1-one] | 87 |  |
| CC1=CC(O)C(OC(=O)c2ccc(Cl)cc2)C(C)(C)CC1=O (stereo not drawn) [AU128, 5-(4-chlorobenzoyloxy)-4-hydroxy-2,6,6-trimethyl-2-cyclohepten-1-one] | 53 |  |
| CC1=CC(OC(=O)c2ccc([N+](=O)[O-])cc2Cl)C(O)C(C)(C)CC1=O (stereo not drawn) [AU219, 4-(2-chloro-4-nitrobenzoyloxy)-5-hydroxy-2,6,6-trimethyl-2-cyclohepten-1-one] | 60 |  |
| CC(C)=CCOC1CC(C)(C)C(O)C(OC(=O)c2ccccc2)C=C1C (stereo not drawn) [AU144, 4-benzoyloxy-1-(3-methyl-2-buten-1-yloxy)-2,6,6-trimethyl-2-cyclohepten-5-ol] | 51 |  |
| CC1=CC(OC(=O)c2ccco2)C(O)C(C)(C)CC1=O (stereo not drawn) [AU403, 4-(2-furoyloxy)-5-hydroxy-2,6,6-trimethyl-2-cyclohepten-1-one] | 31 |  |
| CC(=O)OC1C=C(C)C(=O)CC(C)(C)C1OC(=O)C=Cc1ccccc1 (stereo not drawn) [AU207, 4-acetoxy-5-cinnamoyloxy-2,6,6-trimethyl-2-cyclohepten-1-one] | 56 |  |

| SMILES | inhibition in vivo at 20 mg/kg [1] [%] | also measured |
| --- | --- | --- |
| COC12CC(C)(C)C(O)C(C=C1C)O2 (stereo not drawn) [AU153, 1-methoxy-3,3,7-trimethyl-8-oxabicyclo [3.2.1] oct-6-en-4-ol] |  | inhibition in vivo at 10 mg/kg (1 h, Table 2): 55% |
| CC1=CC(=O)C(OC(=O)c2ccccc2)C(C)(C)CC1=O (stereo not drawn) [AU225, 5-benzoyloxy-2,6,6-trimethyl-2-cyclohepten-1,4-dione] | 36 |  |
| COC1CC(C)(C)C(OC)C(OC)C=C1C (stereo not drawn) [AU113, 1,4,5-trimethoxy-2,6,6-trimethyl-2-cycloheptene] | 39 |  |
| CC(=O)Nc1cccc(C(=O)OC2C(OC(C)=O)C=C(C)C(=O)CC2(C)C)c1 (stereo not drawn) [AU224, 5-(3-acetamidobenzoyloxy)-4-acetoxy-2,6,6-trimethyl-2-cyclohepten-1-one] | 47 |  |
| COC1C=C(C)C(=O)CC(C)(C)C1OC(=O)c1ccc2nc[nH]c2c1 (stereo not drawn) [AU507, 5-(5-benzimidazolylcarbonyloxy)-4-methoxy-2,6,6-trimethyl-2-cyclohepten-1-one] | 63 |  |
| CC1=CC(OC(=O)c2ccc(N(C)C)cc2)C(O)C(C)(C)CC1=O (stereo not drawn) [AU236, 4-(4-dimethylaminobenzoyloxy)-5-hydroxy-2,6,6-trimethyl-2-cyclohepten-1-one] | 45 |  |
| CC1=CC(=O)C2OC1(OC(=O)c1ccccc1)CC2(C)C (stereo not drawn) [AU168, 1-benzoyloxy-2,6,6-trimethyl-8-oxabicyclo [3.2.1] oct-2-en-4-one] | 46 |  |
| CC1=CC(O)C(OC(=O)c2ccc([N+](=O)[O-])cc2)C(C)(C)CC1=O (stereo not drawn) [AU211, 4-hydroxy-5-(4-nitrobenzoyloxy)-2,6,6-trimethyl-2-cyclohepten-1-one] | 38 |  |
| COc1ccc(COC2CC(C)C(=O)CC(C)(C)C2OC(=O)c2ccccc2)cc1 (stereo not drawn) [AU187, 2,4-cis-5-benzoyloxy-4-(4-methoxybenzyloxy)-2,6,6-trimethylcycloheptan-1-one] | 35 |  |
| CC(=O)Nc1ccc(C(=O)OC2C=C(C)C(=O)CC(C)(C)C2O)cc1 (stereo not drawn) [AU237, 4-(4-acetamidobenzoyloxy)-5-hydroxy-2,6,6-trimethyl-2-cyclohepten-1-one] | 30 |  |
| COc1ccc(C(=O)OC2C=C(C)C(=O)CC(C)(C)C2O)cc1OC (stereo not drawn) [AU133, 4-(3,4-dimethoxybenzoyloxy)-5-hydroxy-2,6,6-trimethyl-2-cyclohepten-1-one] | 38 |  |
| COC1CC(C)(C)C(OC(=O)c2ccccc2)C(O)C=C1C (stereo not drawn) [AU115, 5-benzoyloxy-1-methoxy-2,6,6-trimethyl-2-cyclohepten-4-ol] | 83 |  |
| CC1=CC(O)C(OC(=O)c2ccc(N)cc2N)C(C)(C)CC1=O (stereo not drawn) [AU241, 5-(2,4-diaminobenzoyloxy)-4-hydroxy-2,6,6-trimethyl-2-cyclohepten-1-one] | 37 |  |
| CC1=CC(OC(=O)C=Cc2ccccc2)C(O)C(C)(C)CC1=O (stereo not drawn) [AU206, 4-cinnamoyloxy-5-hydroxy-2,6,6-trimethyl-2-cyclohepten-1-one] | 72 |  |
| CC(=O)OC1C(OC(=O)c2ccccc2)CC(C)C(=O)CC1(C)C (stereo not drawn) [AU194, 2,4-cis-5-acetoxy-4-benzoyloxy-2,6,6-trimethylcycloheptan-1-one] | 23 |  |
| CC1CC(O)C(OC(=O)c2ccccc2)C(C)(C)CC1=O (stereo not drawn) [AU191, 2,4-cis-5-benzoyloxy-4-hydroxy-2,6,6-trimethyl cycloheptan-1-one] | 53 |  |
| COC1C=C(C)C(=O)CC(C)(C)C1OC(=O)c1ccc(N)c(N)c1 (stereo not drawn) [AU410, 5-(3,4-diaminobenzoyloxy)-4-methoxy-2,6,6-trimethyl-2-cyclohepten-1-one] | 75 |  |
| CO[C@H]1C[C@H](C)C(=O)CC(C)(C)C1OC(=O)c1ccccc1 (relative stereo) [AU123A, 2,4-trans-5-benzoyloxy-4-methoxy-2,6,6-trimethylcycloheptan-1-one] | 34 |  |
| CC(=O)OC1C(OC(=O)c2ccc(N)cc2)C=C(C)C(=O)CC1(C)C (stereo not drawn) [AU197, 5-acetoxy-4-(4-aminobenzoyloxy)-2,6,6-trimethyl-2-cyclohepten-1-one] | 44 |  |
| CC(=O)OC1C(OC(=O)C=Cc2ccccc2)C=C(C)C(=O)CC1(C)C (stereo not drawn) [AU208, 5-acetoxy-4-cinnamoyloxy-2,6,6-trimethyl-2-cyclohepten-1-one] | 39 |  |
| COC1CC(C)C(=O)CC(C)(C)C1OC(=O)c1ccccc1 (stereo not drawn) [AU123B, 2,4-cis-5-benzoyloxy-4-methoxy-2,6,6-trimethyl cycloheptan-1-one] | 25 |  |
